Measured values taken from patent US6803457B1, “Compounds for the treatment of ischemia” (Pfizer, Inc., priority 1999, dated 2004).

melting point: 107 to 110 °C
SMILES: CNC(=O)[C@H]1O[C@@H](n2cnc3c(NCc4cc(Cl)ccc4OCc4snnc4C)ncnc32)[C@H](O)[C@@H]1N [Example 33, (2S,3S,4R,5R)3-Amino-5-{6-[5-chloro-2-(4-methyl-[1,2,3]thiadiazol-5-ylmethoxy)benzylamino]purin-9-yl}-4-hydroxytetrahydrofuran-2-carboxylic acid methylamide]
